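96-well plates; 48 h exposure; 5 concentrations. Endpoints by linear interpolation between flanking doses. Not reached: highest tested concentration assigned. Abbreviation: GI50, concentration required for 50% inhibition of growth.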 The source made the active and inactive calls. No stated cut-off is given here; in the data, active = GI50 up to about 1.1 µM and inactive = higher.
Columns and labels:
Assay in all cases: NCI anticancer screen, dose series, 48 h
MDA-MB-435 = system: MDA-MB-435
EKVX = system: EKVX
UO-31 = system: UO-31
KM12 = system: KM12
BT-549 = system: BT-549
UACC-62 = system: UACC-62
A498 = system: A498
UACC-257 = system: UACC-257
MCF7 = system: MCF7
A549 = system: A549
OVCAR-8 = system: OVCAR-8
HT-29 = system: HT-29
LOX IMVI = system: LOX IMVI
SK-MEL-2 = system: SK-MEL-2
U-251 = system: U-251
MDA-N = system: MDA-N
IGROV-1 = system: IGROV-1
CCRF-CEM = system: CCRF-CEM
NCI-H23 = system: NCI-H23

Compound	GI50 (MDA-MB-435)	GI50 (EKVX)	GI50 (UO-31)	GI50 (KM12)	GI50 (BT-549)	GI50 (UACC-62)	GI50 (A498)	GI50 (UACC-257)	GI50 (MCF7)	GI50 (A549)	GI50 (OVCAR-8)	GI50 (HT-29)	GI50 (LOX IMVI)	GI50 (SK-MEL-2)	GI50 (U-251)	GI50 (MDA-N)	GI50 (IGROV-1)	GI50 (CCRF-CEM)	GI50 (NCI-H23)
O=C(c1ccccc1)c1ccc(N2C(=O)/C(=C/c3cccc([N+](=O)[O-])c3)N=C2c2ccccc2)c(N2C(=O)/C(=C/c3cccc([N+](=O)[O-])c3)N=C2c2ccccc2)c1	4.88 µM (inactive)	> 100 µM (inactive)	66.7 µM (inactive)	11 µM (inactive)	35.5 µM (inactive)	20.8 µM (inactive)	19.3 µM (inactive)	36.2 µM (inactive)	26.7 µM (inactive)	11 µM (inactive)	42.5 µM (inactive)	41.9 µM (inactive)	42 µM (inactive)	26.4 µM (inactive)	78.7 µM (inactive)	21.7 µM (inactive)	32.4 µM (inactive)	–	–
COc1cccc(/N=N/C(=N/NC(=O)c2cc(Cl)ccc2O)c2ccc(N(CCC#N)CCC#N)cc2C)c1	64.4 µM (inactive)	20.3 µM (inactive)	38.8 µM (inactive)	28.5 µM (inactive)	34.3 µM (inactive)	44.6 µM (inactive)	26.4 µM (inactive)	10.1 µM (inactive)	7.8 µM (inactive)	62.1 µM (inactive)	16.9 µM (inactive)	5.85 µM (inactive)	–	57 µM (inactive)	38.3 µM (inactive)	41.1 µM (inactive)	23.3 µM (inactive)	15.3 µM (inactive)	35 µM (inactive)
Cn1c(=O)c2nc(CCCc3ccc([N+](=O)[O-])cc3)[nH]c2n(C)c1=O	> 100 µM (inactive)	> 100 µM (inactive)	> 100 µM (inactive)	> 100 µM (inactive)	> 100 µM (inactive)	> 100 µM (inactive)	> 100 µM (inactive)	> 100 µM (inactive)	> 100 µM (inactive)	> 100 µM (inactive)	> 100 µM (inactive)	> 100 µM (inactive)	> 100 µM (inactive)	> 100 µM (inactive)	> 100 µM (inactive)	> 100 µM (inactive)	> 100 µM (inactive)	–	> 100 µM (inactive)
COc1cc(NS(C)(=O)=O)ccc1Nc1cc(C)nc2ccc3[nH]ccc3c12	> 100 µM (inactive)	> 100 µM (inactive)	> 100 µM (inactive)	> 100 µM (inactive)	> 100 µM (inactive)	> 100 µM (inactive)	> 100 µM (inactive)	> 100 µM (inactive)	> 100 µM (inactive)	> 100 µM (inactive)	> 100 µM (inactive)	> 100 µM (inactive)	> 100 µM (inactive)	> 100 µM (inactive)	> 100 µM (inactive)	> 100 µM (inactive)	> 100 µM (inactive)	–	> 100 µM (inactive)
Cc1cc2nc(N3C(=O)/C(=C/c4ccc(Cl)cc4)N=C3c3ccccc3)sc2cc1C	8.28 µM (inactive)	24.4 µM (inactive)	26.8 µM (inactive)	16.3 µM (inactive)	26.4 µM (inactive)	30.8 µM (inactive)	32.9 µM (inactive)	28.4 µM (inactive)	23.4 µM (inactive)	30 µM (inactive)	28.4 µM (inactive)	23.9 µM (inactive)	20.5 µM (inactive)	26.5 µM (inactive)	29.9 µM (inactive)	12.5 µM (inactive)	14.6 µM (inactive)	18.1 µM (inactive)	–
C=C1C(O)C2(O)OCC34C(CC5C(C)=CC(=O)C(O)C5(C)C23)OC(=O)C(OC(=O)C/C=C(\C)CCCCC)C14 (configuration not stated)	< 0.001 µM (active)	0.0198 µM (active)	0.0787 µM (active)	0.0129 µM (active)	< 0.001 µM (active)	0.0147 µM (active)	0.0148 µM (active)	0.0125 µM (active)	0.0125 µM (active)	0.017 µM (active)	0.0125 µM (active)	0.0141 µM (active)	–	0.0251 µM (active)	0.0125 µM (active)	< 0.001 µM (active)	0.0133 µM (active)	0.0125 µM (active)	0.0147 µM (active)
O=C(c1ccccc1)C1N=NCC1c1ccc([N+](=O)[O-])cc1 (configuration not stated)	49.1 µM (inactive)	89.1 µM (inactive)	30.1 µM (inactive)	45.4 µM (inactive)	24.2 µM (inactive)	49.4 µM (inactive)	39 µM (inactive)	27 µM (inactive)	22.4 µM (inactive)	37.2 µM (inactive)	42.8 µM (inactive)	36.6 µM (inactive)	36.6 µM (inactive)	46.9 µM (inactive)	48.5 µM (inactive)	29.6 µM (inactive)	–	0.935 µM (active)	36.1 µM (inactive)
CCC(CCCN)Nc1cc(OC)cc2cccnc12 (configuration not stated)	> 100 µM (inactive)	> 100 µM (inactive)	70 µM (inactive)	> 100 µM (inactive)	> 100 µM (inactive)	46.3 µM (inactive)	> 100 µM (inactive)	15.5 µM (inactive)	29.4 µM (inactive)	> 100 µM (inactive)	> 100 µM (inactive)	32.4 µM (inactive)	> 100 µM (inactive)	> 100 µM (inactive)	–	> 100 µM (inactive)	87.3 µM (inactive)	48.9 µM (inactive)	–
Cc1ccc(C(=O)N/N=C(\N=N\c2ccccc2[N+](=O)[O-])c2ccc(N(C)C)cc2)cc1	22.8 µM (inactive)	> 100 µM (inactive)	89.1 µM (inactive)	> 100 µM (inactive)	> 100 µM (inactive)	17.4 µM (inactive)	–	> 100 µM (inactive)	> 100 µM (inactive)	> 100 µM (inactive)	> 100 µM (inactive)	> 100 µM (inactive)	> 100 µM (inactive)	> 100 µM (inactive)	> 100 µM (inactive)	> 100 µM (inactive)	> 100 µM (inactive)	> 100 µM (inactive)	> 100 µM (inactive)
Nc1nc(N)c2cc(CNc3ccc(C(=O)NC(CC(=O)O)C(=O)O)c(Cl)c3)ccc2n1 (configuration not stated)	< 0.01 µM (active)	–	0.918 µM (active)	0.0796 µM (active)	25.8 µM (inactive)	0.0893 µM (active)	0.171 µM (active)	0.259 µM (active)	0.0507 µM (active)	0.0346 µM (active)	0.032 µM (active)	< 0.0143 µM (active)	< 0.01 µM (active)	15 µM (inactive)	0.0556 µM (active)	< 0.01 µM (active)	0.112 µM (active)	0.0342 µM (active)	0.117 µM (active)
COP(=O)(OC)C(NC=O)P(=O)(OC)OC	> 100 µM (inactive)	> 100 µM (inactive)	> 100 µM (inactive)	–	> 100 µM (inactive)	> 100 µM (inactive)	> 100 µM (inactive)	–	> 100 µM (inactive)	> 100 µM (inactive)	> 100 µM (inactive)	> 100 µM (inactive)	> 100 µM (inactive)	–	> 100 µM (inactive)	> 100 µM (inactive)	> 100 µM (inactive)	> 100 µM (inactive)	> 100 µM (inactive)
CC1(C)[C@H]2Cc3cc4nc5ccccn5c4cc3[C@@H]1C2	15.3 µM (inactive)	15.9 µM (inactive)	14 µM (inactive)	18.6 µM (inactive)	24.9 µM (inactive)	15.6 µM (inactive)	–	17.6 µM (inactive)	3.37 µM (inactive)	16.4 µM (inactive)	14.6 µM (inactive)	14.1 µM (inactive)	19.6 µM (inactive)	15.5 µM (inactive)	15.7 µM (inactive)	17.3 µM (inactive)	19 µM (inactive)	31.3 µM (inactive)	17 µM (inactive)
CCN(CCO)CC1CCCC2CCCCC21 (configuration not stated)	> 100 µM (inactive)	> 100 µM (inactive)	> 100 µM (inactive)	> 100 µM (inactive)	> 100 µM (inactive)	> 100 µM (inactive)	> 100 µM (inactive)	> 100 µM (inactive)	> 100 µM (inactive)	> 100 µM (inactive)	> 100 µM (inactive)	> 100 µM (inactive)	–	> 100 µM (inactive)	> 100 µM (inactive)	> 100 µM (inactive)	> 100 µM (inactive)	–	> 100 µM (inactive)
COc1cc(/C=C2/SC(c3ccccc3)N(c3cccc(NC(C)=O)c3)C2=O)cc(OC)c1OC (configuration not stated)	35 µM (inactive)	50.7 µM (inactive)	16.6 µM (inactive)	39.1 µM (inactive)	44.7 µM (inactive)	50.5 µM (inactive)	> 100 µM (inactive)	67.8 µM (inactive)	39.2 µM (inactive)	47.4 µM (inactive)	52.6 µM (inactive)	38.6 µM (inactive)	40.3 µM (inactive)	–	–	25.5 µM (inactive)	–	–	44.9 µM (inactive)
CC[C@H]1C=CCC[C@@]2(C[C@@H]3CC[C@H]4[C@@H](C(=O)OCCCCCCCCCCCCCCCC(=O)N(CCCNC(C)=O)C[C@H](CCNC(C)=O)OC(C)=O)[C@@]5(CCC[C@@H](C)O5)NC(=[N+]34)N2)O1	1.64 µM (inactive)	0.861 µM (active)	1.78 µM (inactive)	1.38 µM (inactive)	1.82 µM (inactive)	1.85 µM (inactive)	1.83 µM (inactive)	1.24 µM (inactive)	1.46 µM (inactive)	1.88 µM (inactive)	1.4 µM (inactive)	1.4 µM (inactive)	1.64 µM (inactive)	1.72 µM (inactive)	0.914 µM (active)	1.69 µM (inactive)	1.31 µM (inactive)	–	1.58 µM (inactive)
